Test results published in BindingDB's records for doi:10.1021/jm00033a017 (Dupont Pharmaceuticals, 1994).

Molecular target: Prostaglandin G/H synthase 1 (Bos taurus) (UniProt O62664)
Experiment: Inhibitory activity against bovine seminal vesicle prostaglandin synthetase

Sequence of Prostaglandin G/H synthase 1 (Bos taurus) (O62664 whole entry, looked up): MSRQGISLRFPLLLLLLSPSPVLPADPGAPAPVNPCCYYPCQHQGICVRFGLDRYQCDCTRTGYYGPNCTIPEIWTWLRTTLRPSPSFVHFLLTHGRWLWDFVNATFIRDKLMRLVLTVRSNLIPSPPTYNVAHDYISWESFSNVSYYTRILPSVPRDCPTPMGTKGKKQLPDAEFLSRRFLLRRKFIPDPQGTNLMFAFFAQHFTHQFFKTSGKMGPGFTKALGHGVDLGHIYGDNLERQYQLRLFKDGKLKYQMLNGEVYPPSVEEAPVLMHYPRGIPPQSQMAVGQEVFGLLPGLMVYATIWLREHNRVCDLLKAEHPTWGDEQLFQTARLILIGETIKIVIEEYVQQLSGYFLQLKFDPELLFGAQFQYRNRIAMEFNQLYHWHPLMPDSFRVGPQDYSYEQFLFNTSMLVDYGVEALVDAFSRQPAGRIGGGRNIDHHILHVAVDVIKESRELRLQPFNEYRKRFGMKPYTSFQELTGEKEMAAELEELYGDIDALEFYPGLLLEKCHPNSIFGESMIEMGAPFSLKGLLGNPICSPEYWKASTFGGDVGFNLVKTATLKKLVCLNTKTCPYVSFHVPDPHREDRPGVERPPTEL

IC50: 6.2 µM
Structure (SMILES): CS(=O)(=O)c1ccc(-c2[nH]c(SC#N)cc2-c2ccc(F)cc2)cc1 [3-(4-Fluoro-phenyl)-2-(4-methanesulfonyl-phenyl)-5-thiocyanato-1H-pyrrole]
